Results on three compounds are retold here after paper PMC8607231, “Generation of KS-133 as a Novel Bicyclic Peptide with a Potent and Selective VIPR2 Antagonist Activity that Counteracts Cognitive Decline in a Mouse Model of Psychiatric Disorders” (Frontiers in Pharmacology, 2021).

Data set [1] has as its target T1, human PAC1 (Homo sapiens, UniProt P41586).
T1 construct: host or cells: CHO-K1
T1 sequence (P41586 21-468): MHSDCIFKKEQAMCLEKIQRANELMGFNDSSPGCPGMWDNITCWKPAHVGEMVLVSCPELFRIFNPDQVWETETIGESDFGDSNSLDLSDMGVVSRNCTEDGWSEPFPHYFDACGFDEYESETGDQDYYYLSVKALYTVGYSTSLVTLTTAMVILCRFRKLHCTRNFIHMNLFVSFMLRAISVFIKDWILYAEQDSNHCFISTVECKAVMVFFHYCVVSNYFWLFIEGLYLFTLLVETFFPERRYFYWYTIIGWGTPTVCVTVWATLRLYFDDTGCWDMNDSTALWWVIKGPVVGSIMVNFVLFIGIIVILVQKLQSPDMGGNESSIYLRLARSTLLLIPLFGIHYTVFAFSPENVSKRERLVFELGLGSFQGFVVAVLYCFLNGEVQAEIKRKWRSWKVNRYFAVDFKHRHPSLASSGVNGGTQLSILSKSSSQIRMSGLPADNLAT
Description: Calcium influx assay, antagonist activity against PACAP-PAC1 signaling. The format is cell-based. The settings on record: ligand PACAP (35 nM) at EC80; CHO-K1 cells; n = 4 wells, ± S.E.M; read-out: Ca influx assay [IC50 (nM)] PAC1. How it is done:
(§1) Evaluation of antagonist activities of peptides against VIP-VIPR1, VIP-VIPR2, and PACAP-PAC1 signaling pathways and agonistic activity of KS-133 at VIPR2 was carried out by Eurofins DiscoverX (Fremont, CA, United States). Intracellular calcium mobilization was monitored using a calcium-sensitive dye loaded in CHO-K1 cells expressing human VIPR1 (ITEM 86-0030P-2243AN), VIPR2 (ITEM 86-0030P-2244AN), and PAC1 (ITEM 86-0030P-2066AN). The cells were preincubated with antagonistic peptides for 30 min at room temperature in the dark. After addition of the ligand at EC80, calcium mobilization was immediately monitored by FLIPR Tetra for 2 min. Cyclic AMP production in CHO-K1 cells expressing human VIPR2 was evaluated using HitHunter® cAMP assays (antagonist mode: ITEM 86-0007P-2362AN; agonist mode: ITEM 86-0007P-2362AG). The cells were preincubated with antagonistic peptides for 30 min at room temperature. After addition of the ligand at EC80, cells were further incubated for 30 min at room temperature. Cells were lysed and the cAMP content of the cell lysate was determined by the β-galactosidase-based enzyme fragment complementation assay ([Eglen, 2002]). IC50 values were estimated by the following equation: IC50 = 10^[Log(A/B) × (50–D)/(C–D) + Log(B)], where A is the concentration at >50% inhibition, B is the concentration at <50% inhibition, C is the inhibition rate at concertation A, and D is the inhibition rate at concertation B.
(§2) First, the antagonistic activities of parental VIpep-3, KS-132, KS-133 (monocyclic) (no bridging between Lys^7 and Asp^11), and KS-133 against human VIPR1, VIPR2, and PAC1 were evaluated by a calcium influx assay. After antagonistic peptide treatment for 30 min, ligand at a concentration of EC80 was added to the cells and then calcium signaling was measured.
(§3) FIGURE 3 Antagonistic/agonistic activities of peptides in the calcium influx and cAMP assays. For evaluation of the antagonistic activity, the cells were preincubated with antagonistic peptides for 30 min. In the calcium influx assay, after addition of ligand at EC80, calcium mobilization was monitored immediately (see details in the Methods section) (n = 4 wells for each treatment). In the cAMP assay, after a 30 min incubation with the ligand at EC80, cAMP production in cells was measured (see details in the Methods section) (n = 4 wells for each treatment).

In data set [2] the target is T2, human VIPR2 (Homo sapiens, UniProt P41587).
T2 construct: host or cells: CHO-K1
T2 sequence (P41587 24-438): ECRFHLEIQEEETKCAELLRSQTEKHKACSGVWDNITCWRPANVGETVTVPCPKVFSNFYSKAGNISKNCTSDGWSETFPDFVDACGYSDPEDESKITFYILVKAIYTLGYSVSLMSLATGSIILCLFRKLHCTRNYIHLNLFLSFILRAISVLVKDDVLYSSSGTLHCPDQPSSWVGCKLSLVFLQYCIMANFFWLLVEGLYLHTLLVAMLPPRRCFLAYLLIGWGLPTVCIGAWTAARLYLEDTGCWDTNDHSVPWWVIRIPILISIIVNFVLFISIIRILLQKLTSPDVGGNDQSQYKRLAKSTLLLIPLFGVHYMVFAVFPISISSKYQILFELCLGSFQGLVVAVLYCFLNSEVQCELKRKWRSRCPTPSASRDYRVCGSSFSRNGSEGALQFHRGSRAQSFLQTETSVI
Description: Calcium influx assay, antagonist activity against VIP-VIPR2 signaling. The format is cell-based. The settings on record: ligand VIP (150 nM) at EC80; CHO-K1 cells; n = 4 wells, ± S.E.M; read-out: Ca influx assay [IC50 (nM)] VIPR2. How it is done:
as §1, with “The cells were preincubated with antagonistic peptides for 30 min at room temperature. After addition of the ligand at EC80, cells were further incubated for 30 min at room temperature.” left out, “IC50 values were estimated by the following equation: IC50 = 10^[Log(A/B) × (50–D)/(C–D) + Log(B)], where A is the concentration at >50% inhibition, B is the concentration at <50% inhibition, C is the inhibition rate at concertation A, and D is the inhibition rate at concertation B.” left out
First, the antagonistic activities of parental VIpep-3, KS-132, KS-133 (monocyclic) (no bridging between Lys^7 and Asp^11), and KS-133 against human VIPR1, VIPR2, and PAC1 were evaluated by a calcium influx assay. After antagonistic peptide treatment for 30 min, ligand at a concentration of EC80 was added to the cells and then calcium signaling was measured. […]

A short description of data set [3]: Peptide stability in rat plasma (RP-HPLC). The format is in vitro ADME. The settings on record: for Stability in rat plasma / RP-HPLC peak area, incubation time 24 h / remaining at 24 h, 0.476 mM: 37°C, 24 h; for RP-HPLC peak area, Input (NT): no plasma treatment; for RP-HPLC peak area, incubation time 24 h / remaining at 24 h, 0.476 mM / RP-HPLC peak area, immediately after mixing / Residual rate, immediately after mixing: rat plasma; for remaining at 24 h, 0.476 mM: read-out: Residual rate, incubation time 24 h. How it is done:
Each peptide (10 mM, 1 μl) was incubated with rat plasma (20 μl) prepared in-house. Immediately after mixing with plasma and after 24 h of incubation at 37°C, 80% acetonitrile (200 μl) was added to extract VIpep-3 and acetonitrile (200 μl) was added to extract KS-132, KS-133(monocyclic), and KS-133. The mixture was stored for 10 min on ice and then centrifuged at 20,000 × g for 10 min at 4°C. The supernatant was recovered and directly applied to RP-HPLC to determine the remaining amount of unmodified peptides in the sample.
The stability of peptides was evaluated in rat plasma. A peptide was incubated in rat plasma at 37°C for 0 and 24 h and the remaining amount of peptide was determined by RP-HPLC. By comparison with the peak area of the peptide, the remaining amount of the peptide after plasma incubation was estimated. […] KS-133(monocyclic) may form a pseudo bicyclic structure by ionic bond interaction between side chains of Lys and Asp.

Data set [4] has as its target T3, human VIPR1 (Homo sapiens, UniProt P32241).
T3 construct: host or cells: CHO-K1
T3 sequence (P32241 31-457): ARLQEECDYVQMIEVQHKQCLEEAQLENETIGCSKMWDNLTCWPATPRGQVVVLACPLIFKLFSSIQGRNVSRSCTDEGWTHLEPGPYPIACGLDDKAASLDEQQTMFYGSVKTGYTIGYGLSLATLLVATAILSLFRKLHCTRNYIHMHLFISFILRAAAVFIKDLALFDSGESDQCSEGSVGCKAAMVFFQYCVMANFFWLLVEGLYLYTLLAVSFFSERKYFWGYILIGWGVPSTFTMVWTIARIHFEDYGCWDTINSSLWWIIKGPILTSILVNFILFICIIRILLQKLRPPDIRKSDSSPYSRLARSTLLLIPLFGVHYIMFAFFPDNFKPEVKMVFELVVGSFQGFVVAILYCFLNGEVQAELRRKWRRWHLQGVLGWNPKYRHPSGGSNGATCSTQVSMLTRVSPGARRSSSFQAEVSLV
Nature of the data set: Calcium influx assay, antagonist activity against VIP-VIPR1 signaling. Format: cell-based. The settings on record: ligand VIP (25 nM) at EC80; CHO-K1 cells; n = 4 wells, ± S.E.M; read-out: Ca influx assay [IC50 (nM)] VIPR1. How it is done:
as §1, §2, §3

For data set [5], the system named is VIPR2. More on the design: method as in Sakamoto et al. (2018). The settings on record: versus VIPR1 and PAC1; ref Sakamoto et al. (2018); cited from earlier work.

Where a SMILES comes first, the peptide text is derived from it. Bridges are numbered along the chain shown (N, C = ends). [ ]: non-standard residue; d: D form. Dap = NC[C@H](N)C(=O)O

In the case of `CC[C@H](C)[C@H](NC(=O)[C@H](CC(C)C)NC(=O)[C@H](CN)NC(=O)[C@@H]1CSSC[C@H](NC(C)=O)C(=O)N2CCC[C@H]2C(=O)N2CCC[C@H]2C(=O)N[C@@H](Cc2ccc(O)cc2)C(=O)N[C@@H](CC(C)C)C(=O)N2CCC[C@H]2C(=O)N[C@@H](CN)C(=O)N[C@@H](Cc2ccc(O)cc2)C(=O)N[C@@H](CC(C)C)C(=O)N1)C(N)=O` [KS-132, Ac-c(Cys-Pro-Pro-Tyr-Leu-Pro-Dap-Tyr-Leu-Cys)-Dap-Leu-Ile-NH2] (Ac-CPPYLP[Dap]YLC[Dap]LI-NH2; disulfide 1-10), in data set [1], the 50% inhibitory concentration (IC50) is above 5000 nM. The IC50 in data set [2] was determined as 33.4 ± 2.8 nM. In addition, in data set [3], the “Stability in rat plasma” value was “significantly degraded within 24 h”; the “RP-HPLC peak area, Input (NT)” value was determined as 1460241; the “RP-HPLC peak area, incubation time 24 h” value is given as 696652; the remaining at 24 h, 0.476 mM was 57.8%. In data set [3], the “RP-HPLC peak area, immediately after mixing” value (shortened to “RP-HPLC peak area, immediately”) is reported as 1206247 and the “Residual rate, immediately after mixing” value was 100%. In addition, the IC50 in data set [4] was above 5000 nM.

As for `CC[C@H](C)[C@H](NC(=O)[C@H](CC(C)C)NC(=O)[C@H](CC(=O)O)NC(=O)[C@@H]1CSSC[C@H](NC(C)=O)C(=O)N2CCC[C@H]2C(=O)N2CCC[C@H]2C(=O)N[C@@H](Cc2ccc(O)cc2)C(=O)N[C@@H](CC(C)C)C(=O)N2CCC[C@H]2C(=O)N[C@@H](CCCCN)C(=O)N[C@@H](Cc2ccc(O)cc2)C(=O)N[C@@H](CC(C)C)C(=O)N1)C(N)=O` [KS-133(monocyclic)] (Ac-CPPYLPKYLCDLI-NH2; disulfide 1-10), the IC50 in data set [1] was above 5000 nM. Further, in data set [2], the IC50 was 56 ± 3.9 nM. For the same compound, in data set [3], the “Stability in rat plasma” value is on record as “also highly stable”; the “RP-HPLC peak area, Input (NT)” value is given as 768775; the “RP-HPLC peak area, incubation time 24 h” value was 724176; the remaining at 24 h, 0.476 mM came to 97.3%. In data set [3], the “RP-HPLC peak area, immediately” value is recorded as 744262 and the “Residual rate, immediately after mixing” value came out at 100%. The IC50 in data set [4] is above 5000 nM.

Consider `CC(=O)N[C@H]1CSSC[C@@H](C(=O)N[C@H](C(=O)N[C@@H](CC(C)C)C(=O)N[C@@H](CC(C)C)C(=O)N[C@@H](CC(C)C)C(=O)N[C@@H](CCCNC(=N)N)C(=O)N[C@@H](CO)C(=O)O)[C@@H](C)O)NC(=O)[C@H](CC(C)C)NC(=O)[C@H](CCCNC(=N)N)NC(=O)[C@H](CCCNC(=N)N)NC(=O)[C@@H]2CCCN2C(=O)[C@H](CC(C)C)NC(=O)[C@H](Cc2ccc(O)cc2)NC(=O)[C@@H]2CCCN2C(=O)[C@@H]2CCCN2C1=O` [VIpep-3, Ac-c(CPPYLPRRLC)TLLLRS-OH, reference compound] (Ac-CPPYLPRRLCTLLLRS-OH; disulfide 1-10), for which, in data set [1], the IC50 was above 5000 nM. Besides, the “Receptor selectivity for VIPR2 compared with the two other receptor subtypes” value in data set [5] was “more than 50 fold”. Besides, in data set [3], the “Stability in rat plasma” value was “significantly degraded within 24 h”; the “RP-HPLC peak area, Input (NT)” value amounted to 1299273; the “RP-HPLC peak area, incubation time 24 h” value was 95354; the remaining at 24 h, 0.476 mM was found to be 10.6%. Besides, in data set [3], the “RP-HPLC peak area, immediately” value came out at 900813 and the “Residual rate, immediately after mixing” value is reported as 100%. Moreover, the IC50 in data set [4] was above 5000 nM.
